Data set [1] concerns DMS273 cells constantly expressing Luc. Description: Target reporter protein (Luc) knockdown in cell, reporter protein assay. As to conditions: Homo sapiens, DMS-273. Type of data set: cell-based. The method, then:
The nucleic acid lipid particles prepared by the same method as that in <Preparation of nucleic acid lipid particles> by using the compounds described in Table 3 were evaluated by reporter assay by the following method.
By using pGL4.50 Luc2 (E1310 Promega), DMS273 cells (human small cell lung cancer) (European Collection of Authenticated Cell Cultures) constantly expressing Luc were prepared. RPMI (Gibco) (10% FBS (Gibco), 1% Penicillin-Streptomycin (Gibco), and 200 μg/mL Hygromycin (Wako)) was used as a culture medium. DMS273 cells (2.0×10^3) constantly expressing luciferase (Luc) were seeded in a 96-well plate and cultured in a 5% CO2 incubator for 24 hours, and then the medium was replaced. Then, 10 μL of each of the dispersion liquids of lipid particles diluted with PBS (Gibco) to yield a concentration of 1 to 1,000 nmol/L was added to the 96-well plate, and the final concentration was adjusted to 0.1 to 100 nmol/L (total amount of liquid: 110 μl). Thereafter, the cells were cultured in a 5% CO2 incubator for 24 hours, the medium was then replaced, and the cells were further cultured for 24 hours.
After the viable cell count was determined, the expression amount of Luc was quantified using a Steady Glo assay kit (Promega), and the knockdown efficiency was calculated according to the following equation. Then, the IC50 concentration at which the expression amount of Luc was knocked down to 50% was calculated.

Data set [2] has as its system Factor VII (FVII) protein. Description: Measurement of Factor VII (FVII) protein in mouse plasma after FVII-siRNA lipid particles. Type of data set: in vivo, C57BL6/J mice. To be noted: 0.1 mg/kg caudal vein, plasma 24 hours after administration, PBS group = 100%. The method, then: The Factor VII (FVII) protein was measured according to the method described in Nature Biotechnology (2010) 28, 172-176. C57BL6/J mice were randomly grouped (n=3). A dispersion liquid of nucleic acid lipid particles was prepared by the same method as that in <Preparation of nucleic acid lipid particles>, except that FVII-siRNA having the sequence described in Molecular Therapy (2009) 17, p. 878 was used instead of Luc-siRNA. The dispersion liquid was administered to the caudal vein of the mice at a dosage of 0.1 mg/kg. For comparison, PBS at the same volume was administered to the caudal vein of the mice. Twenty four hours after the administration, blood was collected from the caudal vena cava, thereby obtaining plasma. The amount of FVII protein was quantified using the obtained plasma and a Biophen FVII assay kit (Aniara).
The FVII amount in the plasma sample of each individual in the PBS administration group was regarded as 100%, and the ratio of the FVII amount in the plasma sample of each individual to 100% was adopted as a measurement value.

The nature of data set [3]: Particle size of nucleic acid lipid particles (Luc2-siRNA). The format is physicochemical. As to conditions: compound/DSPC/cholesterol/DMG-PEG2000 50/10/38.5/1.5. The procedure, abridged:
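Lipid particles formed from oil phase (test lipid/DSPC/cholesterol/DMG-PEG2000, 50/10/38.5/1.5 molar, 20 mmol/L total in ethanol) micromixed 1:3 with Luc2-siRNA in pH 4 acetate buffer (19.7 μmol/L); siRNA/lipid 339 mol/mol, PBS-diluted and dialyzed. Size measured on ELS-Z2 dynamic light scattering.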

The nature of data set [4]: Encapsulation rate of siRNA in nucleic acid lipid particles (Luc2-siRNA). The format is physicochemical. To be noted: compound/DSPC/cholesterol/DMG-PEG2000 50/10/38.5/1.5. The procedure, abridged: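 Encapsulation rate was calculated as (total − outer-phase siRNA)/total ×100. Total siRNA was quantified spectrophotometrically after lipid-dissolving ethanol precipitation, and unencapsulated siRNA by RiboGreen in TE (ex 485/em 535 nm). The particles were test lipid/DSPC/cholesterol/DMG-PEG2000 at 50/10/38.5/1.5, formed by microfluidic mixing with Luc2-siRNA at pH 4 and dialyzed against PBS.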

[5] abbreviates: Luc2-siRNA lipid particles using the compound, siRNA 0.1 to 100 nmol/L, concentration at which Luc expression is knocked down to 50%, read-out: IC50.

These results are taken from patent US12370143B2, “Compound or salt thereof and lipid particles” (FUJIFILM Corporation, priority 2018, dated 2025).

SMILES strings stand for the structures. Where two headings read alike, the source gives them in different places.

Usually IC50 stands for the concentration that inhibits the measured activity by half. As to `CCCCCCCC/C=C\CCCCCCCC(=O)OCCCCCCC(CCCCCCOC(=O)CCCCCCC/C=C\CCCCCCCC)OC(=O)OCCN(CC)CCN(CC)CC` [Example 41, 7-(((2-((2-(diethylamino)ethyl)(ethyl)amino)ethoxy)carbonyl)oxy)tridecane-1,13-diyldioleate], the half-maximal inhibitory concentration (IC50) in data set [1] (setting [5]) was 0.014 µM. For the same compound, the “Relative amount of FVII protein (%)” value in data set [2] is 18%.

Regarding `CCCCCCCC/C=C\CCCCCCCC(=O)OCCCCCCC(CCCCCCOC(=O)CCCCCCC/C=C\CCCCCCCC)OC(=O)OCCN(CCN(CC)CC)C(C)C` [Example 48, 7-(((2-((2-(Diethylamino)ethyl)(isopropyl)amino)ethoxy)carbonyl)oxy)tridecane-1,13-diyldioleate], the IC50 in data set [1] (setting [5]) was found to be 0.043 µM. Moreover, in data set [2], the “Relative amount of FVII protein (%)” value amounted to 20%.

In the case of `CCCCCCCCC(CCCCCC)C(=O)OCCCCCCC(CCCCCCOC(=O)C(CCCCCC)CCCCCCCC)OC(=O)OCCN(CC)CCN(CC)CC` (stereo not drawn) [Example 56, 7-(((2-((2-(Diethylamino)ethyl)(ethyl)amino)ethoxy)carbonyl)oxy)tridecane-1,13-diylbis(2-hexyldecanoate)], in data set [1] (setting [5]), the IC50 was 0.019 µM. For the same compound, the “Relative amount of FVII protein (%)” value in data set [2] is reported as 3%.

With `CCCCCCCCCC(CCCCCCC)C(=O)OCCCCCCC(CCCCCCOC(=O)C(CCCCCCC)CCCCCCCCC)OC(=O)OCCN(CC)CCN(CC)CC` (stereo not drawn) [Example 58, 7-(((2-((2-(Diethylamino)ethyl)(ethyl)amino)ethoxy)carbonyl)oxy)tridecane-1,13-diylbis(2-heptylundecanoate)], the “Relative amount of FVII protein (%)” value in data set [2] is reported as 14%.

In the case of `CCN(CC)CCN(CC)CCOC(=O)OC(CCCCCCOC(=O)C(CCC(C)CC(C)(C)C)C(C)CC(C)(C)C)CCCCCCOC(=O)C(CCC(C)CC(C)(C)C)C(C)CC(C)(C)C` (stereo not drawn) [Example 59, 7-(((2-((2-(Diethylamino)ethyl)(ethyl)amino)ethoxy)carbonyl)oxy)tridecane-1,13-diylbis(2-(4,4-dimethylpentan-2-yl)-5,7,7-trimethyloctanoate)], in data set [2], the “Relative amount of FVII protein (%)” value was found to be 10%.

As to `CCCCCCCCC(CCCCCC)C(=O)OCCCCCCC(CCCCCCOC(=O)C(CCCCCC)CCCCCCCC)OC(=O)OCCN(CCN(CC)CC)C(C)C` (stereo not drawn) [Example 62, 7-(((2-((2-(Diethylamino)ethyl)(isopropyl)amino)ethoxy)carbonyl)oxy)tridecane-1,13-diylbis(2-hexyldecanoate)], the “Relative amount of FVII protein (%)” value in data set [2] turned out to be 3%.

Take `CCCCCCCCC(CCCCCCCC)CC(=O)OCCCCCCC(CCCCCCOC(=O)CC(CCCCCCCC)CCCCCCCC)OC(=O)OCCN(CC)CCN(CC)CC` [Example 65, 7-(((2-((2-(Diethylamino)ethyl)(ethyl)amino)ethoxy)carbonyl)oxy)tridecane-1,13-diylbis(3-octylundecanoate)]: the “Relative amount of FVII protein (%)” value in data set [2] was found to be 11%.

Regarding `CCCCCCC(CCCCCC)CC(=O)OCCCCCCC(CCCCCCOC(=O)CC(CCCCCC)CCCCCC)OC(=O)OCCN(CC)CCN(CC)CC` [Example 67, 7-(((2-((2-(Diethylamino)ethyl)(ethyl)amino)ethoxy)carbonyl)oxy)tridecane-1,13-diylbis(3-hexylnonanoate)], the IC50 in data set [1] (setting [5]) turned out to be 0.022 µM. Further, in data set [2], the “Relative amount of FVII protein (%)” value was 5%.

With `CCCCCCCC(CCCCCCC)CC(=O)OCCCCCCC(CCCCCCOC(=O)CC(CCCCCCC)CCCCCCC)OC(=O)OCCN(CC)CCN(CC)CC` [Example 70, 7-(((2-((2-(diethylamino)ethyl)(ethyl)amino)ethoxy)carbonyl)oxy)tridecane-1,13-diylbis(3-heptyldecanoate)], inhibition in data set [1] was half-maximal at 0.024 µM (IC50). For the same compound, the “Relative amount of FVII protein (%)” value in data set [2] is reported as 6%.

Turning to `CCCCCCCCC(CCCCCC)C(=O)OCCCCCC(CCCCCOC(=O)C(CCCCCC)CCCCCCCC)OC(=O)OCCN(CC)CCN(CC)CC` (stereo not drawn) [Example 71, 6-(((2-((2-(Diethylamino)ethyl)(ethyl)amino)ethoxy)carbonyl)oxy)undecane-1,11-diylbis(2-hexyldecanoate)], in data set [2], the “Relative amount of FVII protein (%)” value is 4%.

For the compound `CCCCCCCCC(CCCCCC)C(=O)OCCCCC(CCCCOC(=O)C(CCCCCC)CCCCCCCC)OC(=O)OCCN(CC)CCN(CC)CC` (stereo not drawn) [Example 73, 5-(((2-((2-(Diethylamino)ethyl)(ethyl)amino)ethoxy)carbonyl)oxy)nonane-1,9-diylbis(2-hexyldecanoate)], the IC50 in data set [1] was 0.024 µM. Further, the “Relative amount of FVII protein (%)” value in data set [2] came out at 1%.

For the compound `CCCCCCCCC(CCCCCCCC)C(=O)OCCCCCCC(CCCCCCOC(=O)C(CCCCCCCC)CCCCCCCC)OC(=O)OCCN(CC)CCN(CC)CC` [Example 74, 7-(((2-((2-(Diethylamino)ethyl)(ethyl)amino)ethoxy)carbonyl)oxy)tridecane-1,13-diylbis(2-octyldecanoate)], in data set [1], 0.022 µM corresponded to half-maximal inhibition (IC50). In data set [2], the “Relative amount of FVII protein (%)” value was determined as 4%.

Turning to `CCCCCCCC(CCCCCCC)C(=O)OCCCCCCC(CCCCCCOC(=O)C(CCCCCCC)CCCCCCC)OC(=O)OCCN(CC)CCN(CC)CC` [Example 76, 7-(((2-((2-(Diethylamino)ethyl)(ethyl)amino)ethoxy)carbonyl)oxy)tridecane-1,13-diylbis(2-heptylnonanoate)], the IC50 in data set [1] (setting [5]) came out at 0.018 µM. For the same compound, in data set [2], the “Relative amount of FVII protein (%)” value came out at 4%.

Take `CCCCCCCCC(CCCCCC)COC(=O)CCCCCC(CCCCCC)OC(=O)OCCN(CCN(CC)CC)C(C)C` (stereo not drawn) [Example 116, 2-Hexyldecyl 3-ethyl-12-hexyl-6-isopropyl-10-oxo-9,11-dioxa-3,6-diazaoctadecan-18-oate]: the “Particle size (nm)” value in data set [3] is on record as 76.3 nm. Further, the “Nucleic acid encapsulation rate” value in data set [4] came out at 73%. For the same compound, the concentration for half-maximal inhibition (IC50) in data set [1] (setting [5]) was 0.025 µM.

With `CCCCC/C=C\C/C=C\CCCCCCCCC(CCCCCCCC/C=C\C/C=C\CCCCC)OC(=O)CCCN(C)C` [Reference Example 1, (6Z,9Z,28Z,31Z)-heptatriaconta-6,9,28,31-tetraen-19-yl-4-(dimethylamino)butanoate, reference compound], the “Particle size (nm)” value in data set [3] is given as 69.6 nm. In addition, the “Nucleic acid encapsulation rate” value in data set [4] stood at 81%. In addition, the IC50 in data set [1] (setting [5]) turned out to be 0.047 µM.

For `CCCCC/C=C\C/C=C\CCCCCCCCN(CCCCCCCC/C=C\C/C=C\CCCCC)C(=O)OCC1CCCN(C)C1` (stereo not drawn) [Reference Example 2, (1-Methylpiperidin-3-yl)methyl di((9Z,12Z)-octadeca-9,12-dien-1-yl)carbamate, reference compound], the “Particle size (nm)” value in data set [3] was 118.4 nm. Moreover, in data set [4], the “Nucleic acid encapsulation rate” value is recorded as 85%. In addition, the concentration for half-maximal inhibition (IC50) in data set [1] (setting [5]) was 0.059 µM.
